Assays:
Type in all cases: in vitro ADME
CYP450 3A4 = target: T1, CYP450 3A4 (Homo sapiens, UniProt P08684); assay: Inhibition of cytochrome P450 enzymes in human liver microsomes, 3A4
T1 construct: 0.1 mg/mL human liver microsomes (HLM); from tissue; host or cells: human liver microsomes
Protocol: (§1) Inhibition of Cytochrome P450 Enzymes: A cocktail of substrates for cytochrome P450 enzymes (1A2: Phenacetin, 10 µM; 2C9: Diclofenac, 5 µM; 2D6: Dextromethorphan, 5 µM; 3A4:
(§2) Midazolam, 2 µM) were mixed for cocktail analysis. For P450 2C19, the substrate stock (Mephenytoin, 40 µM )and substrate mix were prepared separately for discrete analysis. The […]
(§3) positive control for pan-P450 inhibition (miconazole) was included alongside each test compound […]
(§4) A reaction mixture of 100 mM Kpi, pH 7.4, 0.1 mg/mL human liver microsomes (HLM) and Substrate Mix is prepared and aliquoted into a 96-deepwell block. Test compound and positive control (in duplicate) were then added such that the final concentration of test compound ranged from 0.1 – 30 µM. The plate was vortexed briefly and then pre-incubated at 37 °C while shaking for 15 minutes. The reaction was initiated with the addition of NADPH (1 mM final concentration). The incubation continued for 8 min and the reaction quenched by 2x volume of cold acetonitrile containing internal standard (50 nM carbamazepine). The plate was centrifuged for 10 minutes (4000 rcf, 4°C) and the resulting supernatant diluted 1:1 with water for LC/MS/MS analysis. A 12 point standard curve of substrate metabolites over the range of 0.98 nM to 2000 […]
(§5) Samples were analyzed via electrospray ionization (ESI) on an AB Sciex API-4000 (Foster City, CA) triple-quadrupole instrument that was coupled with Shimadzu LC-10AD pumps (Columbia, MD) and a Leap Technologies CTC PAL auto-sampler (Carrboro, NC). Analytes were separated by gradient elution using a Fortis C18 3.0 x 50 mm, 3 µm column (Fortis Technologies Ltd, Cheshire, UK) thermostated at 40°C. HPLC mobile phase A was 0.1% formic acid in water (pH unadjusted), mobile phase B was 0.1% formic acid in acetonitrile (pH unadjusted). The gradient […]
(§6) 90% B for 0.1 min and returned to 10% B in 0.1 min followed by a re-equilibration (0.9 min). The total run time was 2.5 min and the HPLC flow rate was 0.5 mL/min. The source temperature was set at 500°C and mass spectral analyses were performed using multiple reaction monitoring (MRM), with transitions specific for each compound utilizing a Turbo-Ionspray® source in positive ionization mode (5.0 kV spray voltage).
(§7) The IC50 values for each compound were obtained for the individual CYP enzymes by quantitating the inhibition of metabolite formation for each probe substrate. A 0 µM compound condition (or control) was set to 100% enzymatic activity and the effect of increasing test compound concentrations on enzymatic activity could then be calculated from the % of control activity.
(§8) Curves were fitted using XLfit 5.2.2 (four-parameter logistic model, equation 201) to determine the concentration that produces half-maximal inhibition (IC50).

CYP450 2D6 = target: T2, CYP450 2D6 (Homo sapiens, UniProt P10635); assay: Inhibition of cytochrome P450 enzymes in human liver microsomes, 2D6
T2 construct: 0.1 mg/mL human liver microsomes (HLM); from tissue; host or cells: human liver microsomes
Protocol: as §1, §2, §3, §4, §5, §6, §7, §8

CYP450 2C9 = target: T3, CYP450 2C9 (Homo sapiens, UniProt P11712); assay: Inhibition of cytochrome P450 enzymes in human liver microsomes, 2C9
T3 construct: 0.1 mg/mL human liver microsomes (HLM); from tissue; host or cells: human liver microsomes
Protocol: as §1, §2, §3, §4, §5, §6, §7, §8

P-gp = target: T4, P-gp (Homo sapiens, UniProt P08183); assay: MDCK-MDR1 efflux and permeability; details: for Papp / efflux ratio: dog, MDCK-MDR1; for efflux ratio: read-out: P-gp, MDCK-MDR1 ER
T4 construct: expressed in transfected cells; host or cells: MDCK-MDR1
T4 sequence (P08183 whole entry): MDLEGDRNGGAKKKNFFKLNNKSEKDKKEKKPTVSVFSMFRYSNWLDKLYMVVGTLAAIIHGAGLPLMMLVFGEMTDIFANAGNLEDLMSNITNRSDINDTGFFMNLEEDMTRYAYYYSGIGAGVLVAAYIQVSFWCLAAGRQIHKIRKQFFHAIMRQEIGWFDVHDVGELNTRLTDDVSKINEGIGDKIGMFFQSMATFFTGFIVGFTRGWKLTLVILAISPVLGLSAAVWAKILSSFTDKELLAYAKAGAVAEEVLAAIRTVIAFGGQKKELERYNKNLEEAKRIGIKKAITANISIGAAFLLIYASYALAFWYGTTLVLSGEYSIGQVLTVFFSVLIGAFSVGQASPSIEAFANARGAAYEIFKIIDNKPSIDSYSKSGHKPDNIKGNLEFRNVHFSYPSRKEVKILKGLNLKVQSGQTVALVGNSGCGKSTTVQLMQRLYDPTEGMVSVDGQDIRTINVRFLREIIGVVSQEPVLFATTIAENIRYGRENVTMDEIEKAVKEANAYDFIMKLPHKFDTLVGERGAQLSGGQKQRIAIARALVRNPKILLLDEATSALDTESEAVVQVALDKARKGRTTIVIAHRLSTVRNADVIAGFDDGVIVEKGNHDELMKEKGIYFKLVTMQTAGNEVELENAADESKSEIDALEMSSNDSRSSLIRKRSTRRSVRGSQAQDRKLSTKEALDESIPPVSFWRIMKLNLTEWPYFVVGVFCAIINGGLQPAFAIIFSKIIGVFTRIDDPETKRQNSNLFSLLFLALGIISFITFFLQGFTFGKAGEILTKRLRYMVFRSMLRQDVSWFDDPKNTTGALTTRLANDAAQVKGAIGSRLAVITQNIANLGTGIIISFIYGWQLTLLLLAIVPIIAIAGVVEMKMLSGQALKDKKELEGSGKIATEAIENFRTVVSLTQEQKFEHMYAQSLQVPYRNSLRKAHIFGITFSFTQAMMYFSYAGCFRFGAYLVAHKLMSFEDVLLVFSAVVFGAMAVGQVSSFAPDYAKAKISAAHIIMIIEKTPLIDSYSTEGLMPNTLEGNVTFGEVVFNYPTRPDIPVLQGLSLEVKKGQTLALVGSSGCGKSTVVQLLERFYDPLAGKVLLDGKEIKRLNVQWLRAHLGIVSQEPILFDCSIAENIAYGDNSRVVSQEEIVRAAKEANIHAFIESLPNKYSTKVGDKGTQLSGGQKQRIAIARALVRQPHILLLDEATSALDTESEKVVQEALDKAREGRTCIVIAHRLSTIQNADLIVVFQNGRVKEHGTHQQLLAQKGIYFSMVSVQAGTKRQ

T1 sequence (P08684 whole entry): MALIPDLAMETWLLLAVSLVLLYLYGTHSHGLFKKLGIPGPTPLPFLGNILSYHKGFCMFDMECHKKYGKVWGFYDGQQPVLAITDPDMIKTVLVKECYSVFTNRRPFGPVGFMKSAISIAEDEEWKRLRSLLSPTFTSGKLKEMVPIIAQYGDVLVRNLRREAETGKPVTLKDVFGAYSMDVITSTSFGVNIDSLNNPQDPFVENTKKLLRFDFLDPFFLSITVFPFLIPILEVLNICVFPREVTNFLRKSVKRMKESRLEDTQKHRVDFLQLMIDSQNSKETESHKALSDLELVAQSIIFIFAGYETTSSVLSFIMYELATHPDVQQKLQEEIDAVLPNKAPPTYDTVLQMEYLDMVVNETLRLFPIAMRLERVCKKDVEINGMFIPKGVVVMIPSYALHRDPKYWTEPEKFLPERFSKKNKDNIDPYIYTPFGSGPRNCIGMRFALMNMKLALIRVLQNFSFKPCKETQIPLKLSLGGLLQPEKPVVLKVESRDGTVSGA
T3 sequence (P11712 whole entry): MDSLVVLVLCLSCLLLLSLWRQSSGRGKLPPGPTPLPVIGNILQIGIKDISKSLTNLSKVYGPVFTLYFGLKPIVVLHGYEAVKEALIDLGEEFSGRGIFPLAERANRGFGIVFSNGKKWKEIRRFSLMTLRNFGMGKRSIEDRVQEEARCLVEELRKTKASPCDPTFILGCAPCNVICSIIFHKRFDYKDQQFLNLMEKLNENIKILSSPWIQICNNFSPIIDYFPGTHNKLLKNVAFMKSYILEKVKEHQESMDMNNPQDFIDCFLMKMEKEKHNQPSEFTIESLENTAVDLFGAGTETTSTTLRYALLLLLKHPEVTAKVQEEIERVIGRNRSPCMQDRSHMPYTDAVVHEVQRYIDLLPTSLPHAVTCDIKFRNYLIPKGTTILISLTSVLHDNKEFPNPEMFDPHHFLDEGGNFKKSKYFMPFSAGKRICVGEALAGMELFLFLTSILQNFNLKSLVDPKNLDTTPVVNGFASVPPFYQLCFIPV
T2 sequence (P10635 whole entry): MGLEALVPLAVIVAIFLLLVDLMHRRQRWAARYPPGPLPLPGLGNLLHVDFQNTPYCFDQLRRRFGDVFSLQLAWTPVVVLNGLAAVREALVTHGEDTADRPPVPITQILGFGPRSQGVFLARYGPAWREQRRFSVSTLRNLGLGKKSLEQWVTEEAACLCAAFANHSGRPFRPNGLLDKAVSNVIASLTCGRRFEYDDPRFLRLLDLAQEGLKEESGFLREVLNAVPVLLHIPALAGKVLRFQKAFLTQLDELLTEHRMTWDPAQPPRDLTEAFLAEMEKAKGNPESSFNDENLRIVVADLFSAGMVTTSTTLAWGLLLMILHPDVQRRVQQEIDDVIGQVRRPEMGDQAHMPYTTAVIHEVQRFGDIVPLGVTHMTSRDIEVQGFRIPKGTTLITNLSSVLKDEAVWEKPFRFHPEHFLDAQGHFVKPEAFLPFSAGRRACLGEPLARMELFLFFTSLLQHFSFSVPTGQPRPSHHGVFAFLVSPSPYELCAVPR

SMILES	IC50 (CYP450 3A4)	IC50 (CYP450 2D6)	IC50 (CYP450 2C9)	Papp (P-gp)	efflux ratio (P-gp)	P-gp, MDCK-MDR1 ER (P-gp)
Cc1nc2ccccc2cc1CNC(=O)c1cc(-n2cccn2)ccc1Cl [compound 6]	8.8 µM	6.9 µM	6.4 µM	39 ×10⁻⁶ cm/s	0.5	–
Cc1nc2c(F)cccc2cc1CNC(=O)c1cc(-n2cccn2)ccc1Cl [compound 7]	9 µM	> 30 µM	5.9 µM	–	–	–
Cc1nc(C2CC2)ccc1CNC(=O)c1cc(-n2cccn2)ccc1Cl [compound 8]	23.8 µM	> 30 µM	22.3 µM	42 ×10⁻⁶ cm/s	0.93	0.93

The next lines start with results.

IC50 (CYP450 3A4)	IC50 (CYP450 2D6)	IC50 (CYP450 2C9)	SMILES	Papp (P-gp)	efflux ratio (P-gp)	P-gp, MDCK-MDR1 ER (P-gp)
> 30 µM	> 30 µM	> 30 µM	Cn1cc(-c2cc(CNC(=O)c3cc(-c4ccco4)ccc3Cl)n(C)n2)cn1 [compound 4]	–	–	–
> 30 µM	> 30 µM	> 30 µM	Cn1nc(-c2ccnn2C)cc1CNC(=O)c1cc(-n2cccn2)ccc1Cl [compound 5]	–	–	–

— publication PMC11843613, “Further Optimization of the mGlu1 PAM VU6024578/BI02982816: Discovery and Characterization of VU6033685” (ACS Chemical Neuroscience, 2025)
